The source of these data is paper PMC7478165, “Derivatisation of parthenolide to address chemoresistant chronic lymphocytic leukaemia” (MedChemComm, 2019).

The structures appear in SMILES notation. Bounds are passed on as bounds.

Data set [1] deals with MEC1 CLL cell line. As to the kind of experiment: alamarBlue assay, in vitro antileukaemic activity against MEC1 CLL cell line. It counts as cell-based. The settings on record: MEC1 cell line, alamarBlue assay, library screen; read-out: EC50 ave.
The nature of a further data set: in vitro. The settings on record: mouse, microsomes.
For data set [2], the system named is MEC1 CLL cell line. As to the kind of experiment: cells. Also noted: alamarBlue (resazurin reduction) cytotoxicity assay in MEC1 CLL cells, n = 5. The settings on record: Homo sapiens, read-out: alamarBlue EC50 (uM) average n=5. The method, then:
Comparison of the activity of 5f with 1 (PTL) and 2a (DMAPT) Biological efforts at University of Birmingham Tissue culture, MEC1 cells were obtained from the American Type Culture Collection (Manassas, VA 20110 USA) and were cultured in RPMI 1640 medium (Sigma-Aldrich, Irvine, UK) with 10% fetal bovine serum (Sigma-Aldrich). The alamarBlue® cytotoxicity assay was conducted by seeding MEC1 cells in triplicate at density of 25000 cells/well in a 96 well plate, final volume of 200 μL. Following treatment with test compound, viability was determined by measuring the reduction of resazurin. Resazurin solution was added to each well at a final concentration of 50 μg/mL and incubated for 3 hours at 37 °C with 5% CO2. Reduction of resazurin was determined by measuring […] at 590 nm using a PheraSTAR FS plate reader (BMG Labtech). Cell viability was calculated as a fraction of the untreated cells after subtracting background fluorescence of resazurin in media only. Data is presented as the mean of five independent experiments and significance was determined by Student’s t-test.

For the molecule `C/C1=C\CC[C@@]2(C)O[C@@H]2[C@H]2OC(=O)[C@@H](CN3CCC(O)(c4ccccc4)CC3)[C@@H]2CC1` [Compound 5e], the half-maximal effective concentration (EC50) in the data set on MEC1 CLL cell line [1] was less than 15 µM. Moreover, the microsomal CLint in the data set “in vitro” was greater than 100 µL/min/mg. Regarding `C/C1=C\CC[C@@]2(C)O[C@@H]2[C@H]2OC(=O)[C@@H](CN(C)C)[C@@H]2CC1` [DMAPT, dimethyl amino-PTL], the EC50 in the data set with MEC1 CLL cell line [2] is 5.3 µM.
